Reference: patent US20220110886A1, “OPTIMIZATION OF SCENT OR FLAVOR COMPOSITIONS” (Aromyx Corporation, priority 2019, published 2022)

Key:
OR11H7P = target: T1, OR11H7P (Homo sapiens, UniProt Q8NGC8); assay: Olfactory receptor cAMP signaling in transfected HEK293T cells exposed to menthol; type: cell-based; settings: 11H7P, menthol 1 nM to 1 mM, cAMP production
T1 construct: expressed in transfected cells; host or cells: HEK293T
T1 sequence (Q8NGC8 1-314): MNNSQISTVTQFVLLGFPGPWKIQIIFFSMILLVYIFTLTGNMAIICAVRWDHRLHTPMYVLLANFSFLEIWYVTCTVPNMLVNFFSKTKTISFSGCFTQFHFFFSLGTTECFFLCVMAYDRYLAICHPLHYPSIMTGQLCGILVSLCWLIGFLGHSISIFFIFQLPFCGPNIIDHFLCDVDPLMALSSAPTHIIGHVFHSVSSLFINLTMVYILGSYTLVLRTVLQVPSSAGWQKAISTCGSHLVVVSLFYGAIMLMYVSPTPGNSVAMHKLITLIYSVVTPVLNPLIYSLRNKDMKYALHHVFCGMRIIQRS
Method: (§1) When creating an age-related flavor profile for menthol, identification of the olfactory receptors that respond to menthol may be accomplished by transfecting human olfactory receptor cDNA sequences in HEK293T co-expressing accessory factors for odorant receptor expression (see, e.g., Saito, H., et al., Cell 119:679-691 (2004)). Transfected cells may then be exposed to serial dilutions of menthol from 1 nM to 1 mM in growth medium, and receptor signaling may be measured by cAMP production in the cell using a commercial assay.
(§2) Next, positive olfactory receptors may be identified by increased signaling when exposed to at least one menthol concentration compared to control cells that have not been transfected. In each case, an EC50 is defined for the receptor versus menthol. Olfactory receptors OR1G1, 8K3, 2W1, 2J2, 11H7P and 51E1 have been identified by this method as menthol-sensitive olfactory receptors.

OR1G1 = target: T2, OR1G1 (Homo sapiens, UniProt P47890); assay: as above; type: cell-based; settings: menthol 1 nM to 1 mM, cAMP production
T2 construct: expressed in transfected cells; host or cells: HEK293T
T2 sequence (P47890 1-313): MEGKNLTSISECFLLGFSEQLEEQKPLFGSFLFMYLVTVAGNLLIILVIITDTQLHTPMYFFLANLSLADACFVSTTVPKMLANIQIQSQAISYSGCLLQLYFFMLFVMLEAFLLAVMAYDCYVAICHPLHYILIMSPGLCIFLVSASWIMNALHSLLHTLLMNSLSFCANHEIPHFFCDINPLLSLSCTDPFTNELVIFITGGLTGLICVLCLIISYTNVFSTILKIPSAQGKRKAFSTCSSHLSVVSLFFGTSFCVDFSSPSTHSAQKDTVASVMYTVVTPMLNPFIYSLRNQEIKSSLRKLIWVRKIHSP
Method: as §1, §2

OR2J2 = target: T3, OR2J2 (Homo sapiens, UniProt O76002); assay: as above; type: cell-based; settings: 2J2, menthol 1 nM to 1 mM, cAMP production
T3 construct: expressed in transfected cells; host or cells: HEK293T
T3 sequence (O76002 1-312): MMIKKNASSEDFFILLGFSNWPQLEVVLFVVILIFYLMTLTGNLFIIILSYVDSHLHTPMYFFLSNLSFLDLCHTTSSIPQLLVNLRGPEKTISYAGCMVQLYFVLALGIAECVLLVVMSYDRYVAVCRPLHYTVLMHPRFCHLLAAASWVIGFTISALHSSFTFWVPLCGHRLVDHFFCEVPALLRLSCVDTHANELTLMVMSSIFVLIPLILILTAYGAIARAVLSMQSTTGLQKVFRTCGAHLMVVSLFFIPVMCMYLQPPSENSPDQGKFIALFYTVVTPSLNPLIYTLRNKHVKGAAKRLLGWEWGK
Method: as §1, §2

OR2W1 = target: T4, OR2W1 (Homo sapiens, UniProt Q9Y3N9); assay: as above; type: cell-based; settings: 2W1, menthol 1 nM to 1 mM, cAMP production
T4 construct: expressed in transfected cells; host or cells: HEK293T
T4 sequence (Q9Y3N9 1-320): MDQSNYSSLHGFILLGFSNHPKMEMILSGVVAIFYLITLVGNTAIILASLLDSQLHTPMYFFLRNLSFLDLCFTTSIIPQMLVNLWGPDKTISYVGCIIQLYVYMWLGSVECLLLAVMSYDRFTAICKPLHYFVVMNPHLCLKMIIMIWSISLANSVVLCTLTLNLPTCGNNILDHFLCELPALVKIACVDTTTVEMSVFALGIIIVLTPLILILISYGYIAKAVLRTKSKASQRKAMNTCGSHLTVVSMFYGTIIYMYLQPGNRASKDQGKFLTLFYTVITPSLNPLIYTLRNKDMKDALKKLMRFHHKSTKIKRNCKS
Method: as §1, §2

OR51E1 = target: T5, OR51E1 (Homo sapiens, UniProt Q8TCB6); assay: as above; type: cell-based; settings: 51E1, menthol 1 nM to 1 mM, cAMP production
T5 construct: expressed in transfected cells; host or cells: HEK293T
T5 sequence (Q8TCB6 1-318): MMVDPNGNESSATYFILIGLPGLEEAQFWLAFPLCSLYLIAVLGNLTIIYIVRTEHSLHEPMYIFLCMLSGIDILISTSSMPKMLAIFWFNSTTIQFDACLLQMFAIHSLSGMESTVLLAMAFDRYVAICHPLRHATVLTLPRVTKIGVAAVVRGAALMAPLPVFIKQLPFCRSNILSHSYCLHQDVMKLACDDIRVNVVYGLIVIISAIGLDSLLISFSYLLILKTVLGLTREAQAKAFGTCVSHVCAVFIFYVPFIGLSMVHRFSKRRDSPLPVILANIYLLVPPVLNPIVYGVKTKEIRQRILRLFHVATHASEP
Method: as §1, §2

OR8K3 = target: T6, OR8K3 (Homo sapiens, UniProt Q8NH51); assay: as above; type: cell-based; settings: 8K3, menthol 1 nM to 1 mM, cAMP production
T6 construct: expressed in transfected cells; host or cells: HEK293T
T6 sequence (Q8NH51 1-312): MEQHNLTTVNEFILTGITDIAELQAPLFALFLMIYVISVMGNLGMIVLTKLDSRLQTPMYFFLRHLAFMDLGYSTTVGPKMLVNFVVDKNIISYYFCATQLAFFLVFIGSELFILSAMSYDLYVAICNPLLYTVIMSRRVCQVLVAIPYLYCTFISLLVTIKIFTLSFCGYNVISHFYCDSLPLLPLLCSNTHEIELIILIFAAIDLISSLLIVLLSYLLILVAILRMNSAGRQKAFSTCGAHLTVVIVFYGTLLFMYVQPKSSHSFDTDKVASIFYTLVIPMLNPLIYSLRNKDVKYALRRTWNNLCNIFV
Method: as §1, §2

[1] = adults relative to children; cited from earlier work

CC1CCC(C(C)C)C(O)C1 (stereo not shown) [menthol]
receptor identified as menthol-sensitive (increased signaling vs non-transfected control cells) (OR11H7P): menthol-sensitive
receptor identified as menthol-sensitive (increased signaling vs non-transfected control cells) (OR1G1): menthol-sensitive
receptor identified as menthol-sensitive (increased signaling vs non-transfected control cells) (OR2J2): menthol-sensitive
receptor identified as menthol-sensitive (increased signaling vs non-transfected control cells) (OR2W1): menthol-sensitive
receptor identified as menthol-sensitive (increased signaling vs non-transfected control cells) (OR51E1): menthol-sensitive
receptor identified as menthol-sensitive (increased signaling vs non-transfected control cells) (OR8K3): menthol-sensitive
menthol concentration adults require to perceive the same level of intensity as children [1]: approximately two
